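Interpolation was linear, between the two tested concentrations surrounding the appropriate level; five concentrations were tested over 48 hours in 96-well plates. GI50: concentration for 50% inhibition of growth.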 Activity calls are given as the source filed them. Cut-off read from the data, not from the text of the source: active = GI50 up to about 1.1 µM and inactive = higher.
How the values were obtained:
Assay in all cases: NCI anticancer screen, dose series, 48 h
[1] = tested on: ACHN
[2] = tested on: HCC 2998
[3] = tested on: HL-60
[4] = tested on: HOP-92
[5] = tested on: Hs-578T
[6] = tested on: KM12
[7] = tested on: MCF7
[8] = tested on: MDA-MB-231
[9] = tested on: MDA-MB-435
[10] = tested on: NCI-H23
[11] = tested on: PC-3
[12] = tested on: RPMI-8226
[13] = tested on: SF-268
[14] = tested on: SK-MEL-28
[15] = tested on: SN12C
[16] = tested on: SNB-19
[17] = tested on: TK-10
[18] = tested on: UACC-62
[19] = tested on: A498
[20] = tested on: NCI-H460

Row | Structure (SMILES) | GI50 [1] | GI50 [2] | GI50 [3] | GI50 [4] | GI50 [5] | GI50 [6] | GI50 [7] | GI50 [8] | GI50 [9] | GI50 [10] | GI50 [11] | GI50 [12] | GI50 [13] | GI50 [14] | GI50 [15] | GI50 [16] | GI50 [17] | GI50 [18] | GI50 [19] | GI50 [20]
1 | O=C(O)/C=C/c1ccc(Oc2ccccc2C(=O)O)o1 | > 10 µM (inactive) | > 10 µM (inactive) | > 10 µM (inactive) | > 10 µM (inactive) | > 10 µM (inactive) | > 10 µM (inactive) | > 10 µM (inactive) | > 10 µM (inactive) | > 10 µM (inactive) | > 10 µM (inactive) | > 10 µM (inactive) | > 10 µM (inactive) | > 10 µM (inactive) | > 10 µM (inactive) | > 10 µM (inactive) | > 10 µM (inactive) | > 10 µM (inactive) | > 10 µM (inactive) |  | 
2 | O=C(O)c1cc(CC2Cc3cc4c(cc3C2=O)CCC4)cc2c1CCC2 (centres undefined) | 61 µM (inactive) | > 100 µM (inactive) | > 100 µM (inactive) |  | 48.1 µM (inactive) | 75.2 µM (inactive) | > 100 µM (inactive) | 76.4 µM (inactive) | > 100 µM (inactive) | > 100 µM (inactive) | 46.6 µM (inactive) | 70.8 µM (inactive) | > 100 µM (inactive) | > 100 µM (inactive) | > 100 µM (inactive) | > 100 µM (inactive) | > 100 µM (inactive) | 43.2 µM (inactive) | > 100 µM (inactive) | > 100 µM (inactive)
3 | Cc1ccc2c(=O)[nH]sc2c1 | 9.29 µM (inactive) | 21.2 µM (inactive) | 13.1 µM (inactive) |  | 21.5 µM (inactive) |  | 17.1 µM (inactive) | 17.3 µM (inactive) | 14.5 µM (inactive) | 17.7 µM (inactive) | 15.7 µM (inactive) | 5.31 µM (inactive) | 19.9 µM (inactive) | 17.9 µM (inactive) | 7.83 µM (inactive) | 39.4 µM (inactive) | 18.4 µM (inactive) | 17.1 µM (inactive) | 64.1 µM (inactive) | 53.3 µM (inactive)
4 | O=C(Nc1ccc(N=C=S)cc1Cl)c1cc(Br)cc(Br)c1O | 27 µM (inactive) |  | 34.5 µM (inactive) | 14.1 µM (inactive) | 25.6 µM (inactive) | 27 µM (inactive) | 31.5 µM (inactive) | 21.5 µM (inactive) | 28.1 µM (inactive) | 26.7 µM (inactive) | 19 µM (inactive) |  | 36.9 µM (inactive) | 30.4 µM (inactive) | < 0.01 µM (active) | 24.6 µM (inactive) | 27.9 µM (inactive) | 18.9 µM (inactive) |  | 32.6 µM (inactive)
5 | O=C1/C(=C/c2ccc([N+](=O)[O-])cc2)Oc2cc(O)ccc21 | 25.4 µM (inactive) | 34.6 µM (inactive) | 17.5 µM (inactive) |  | 17.1 µM (inactive) | 36.5 µM (inactive) | 27.2 µM (inactive) | 26.5 µM (inactive) | 30.5 µM (inactive) | 42.1 µM (inactive) | 29.3 µM (inactive) | 22.5 µM (inactive) | 61 µM (inactive) | 41 µM (inactive) | 26.6 µM (inactive) | 29.1 µM (inactive) | 27.4 µM (inactive) | 33 µM (inactive) |  | 31.5 µM (inactive)
6 | O=C(c1ccccc1)c1ccc2[nH]c(-c3c(Cl)c(Cl)c(Cl)c(Cl)c3C(=O)N/N=C/c3ccc(Cl)cc3)nc2c1 | 19.9 µM (inactive) |  | 4.06 µM (inactive) | 43.6 µM (inactive) | 57.9 µM (inactive) | 48.4 µM (inactive) | 20.6 µM (inactive) | 20.7 µM (inactive) | 32.8 µM (inactive) | 30.1 µM (inactive) | 37 µM (inactive) | 19.3 µM (inactive) | 40.7 µM (inactive) | 33 µM (inactive) | 39.2 µM (inactive) | 43 µM (inactive) | 40.1 µM (inactive) |  |  | 
7 | CSc1nn(C)cc2nc(C)nc1-2 | > 100 µM (inactive) |  | > 100 µM (inactive) |  | > 100 µM (inactive) | > 100 µM (inactive) | > 100 µM (inactive) | > 100 µM (inactive) | > 100 µM (inactive) | > 100 µM (inactive) | > 100 µM (inactive) | > 100 µM (inactive) | > 100 µM (inactive) | > 100 µM (inactive) | > 100 µM (inactive) | > 100 µM (inactive) | > 100 µM (inactive) | > 100 µM (inactive) | > 100 µM (inactive) | > 100 µM (inactive)
8 | Cc1ccc(N/N=C/C2=CC(C)(C)C(C#N)(C#N)C(O)=C2C#N)cc1 | 45.5 µM (inactive) | 37.8 µM (inactive) | 17.3 µM (inactive) | 5.89 µM (inactive) | > 100 µM (inactive) | 32.4 µM (inactive) | > 100 µM (inactive) | 44.6 µM (inactive) | 62.5 µM (inactive) | 39.4 µM (inactive) | 7.23 µM (inactive) | 22.2 µM (inactive) | 49 µM (inactive) | 85.5 µM (inactive) | > 100 µM (inactive) | 86.5 µM (inactive) | 99.5 µM (inactive) | 30.4 µM (inactive) |  | 24.6 µM (inactive)
9 | Cc1cc(S(=O)(=O)[N-]/C(=N/S(=O)(=O)c2cc(Cl)sc2Cl)[n+]2ccc(N(C)C)cc2)c(S)cc1Cl | 67 µM (inactive) | 60.7 µM (inactive) | > 100 µM (inactive) |  | 40.4 µM (inactive) | > 100 µM (inactive) | 84.7 µM (inactive) | 77.3 µM (inactive) | 62.1 µM (inactive) | 34.9 µM (inactive) | 53.8 µM (inactive) | 47.5 µM (inactive) | 40.1 µM (inactive) | 84.9 µM (inactive) |  |  | 49.7 µM (inactive) |  | 26.7 µM (inactive) | 44.3 µM (inactive)
10 | CCCCCCCCCCCCCCCCOP(=O)(O)OCC(N)C(=O)O (centres undefined) | 16.3 µM (inactive) | 15.1 µM (inactive) |  | 19.5 µM (inactive) | 16.1 µM (inactive) | 12.6 µM (inactive) |  | 24.7 µM (inactive) | 22.5 µM (inactive) | 27 µM (inactive) | 12 µM (inactive) | 18.6 µM (inactive) | 18.5 µM (inactive) | 43.1 µM (inactive) | 18.3 µM (inactive) | 16.4 µM (inactive) | 5.02 µM (inactive) | 18 µM (inactive) | 19.8 µM (inactive) | 17.1 µM (inactive)
11 | CSC1=N/C(=C\c2ccco2)C(=O)N1CN1CCOCC1 | 43 µM (inactive) | 25.7 µM (inactive) |  |  | > 100 µM (inactive) | > 70.1 µM (inactive) | 23 µM (inactive) | > 63.1 µM (inactive) | > 62.2 µM (inactive) | > 100 µM (inactive) | > 93.8 µM (inactive) | 32.7 µM (inactive) | > 44.4 µM (inactive) | > 71.6 µM (inactive) | > 52.8 µM (inactive) | > 93.1 µM (inactive) | > 58.1 µM (inactive) | 44.6 µM (inactive) | > 60.1 µM (inactive) | 13.9 µM (inactive)
12 | CCNC(=S)NNC(=O)c1ccccc1Nc1ccccc1C(=O)NNC(=S)NCC | > 100 µM (inactive) | > 100 µM (inactive) | > 100 µM (inactive) | > 100 µM (inactive) | > 100 µM (inactive) | > 100 µM (inactive) | > 100 µM (inactive) | > 100 µM (inactive) | > 100 µM (inactive) | > 100 µM (inactive) | > 100 µM (inactive) | > 100 µM (inactive) |  | > 100 µM (inactive) | > 100 µM (inactive) | > 100 µM (inactive) | > 100 µM (inactive) | > 100 µM (inactive) |  | > 100 µM (inactive)
13 | CC(=O)OCC1OC(n2c(C)c(/N=N/c3ccc(Cl)cc3)c(C)c(C#N)c2=S)C(OC(C)=O)C(OC(C)=O)C1OC(C)=O (centres undefined) | 58.1 µM (inactive) | > 100 µM (inactive) | > 100 µM (inactive) | 0.205 µM (active) | 21.5 µM (inactive) | > 100 µM (inactive) | > 100 µM (inactive) | 65.2 µM (inactive) | > 100 µM (inactive) | > 100 µM (inactive) | > 100 µM (inactive) | > 100 µM (inactive) | 27.9 µM (inactive) | > 100 µM (inactive) | > 100 µM (inactive) | 28.8 µM (inactive) | 40.5 µM (inactive) | 38.4 µM (inactive) |  | > 100 µM (inactive)
14 | COc1ccc(N2C(=O)C(=O)N(c3ccccc3[N+](=O)[O-])C2=S)cc1 | 28.4 µM (inactive) | 36.1 µM (inactive) | 46 µM (inactive) | 19.6 µM (inactive) | 22.7 µM (inactive) | 22.3 µM (inactive) |  | 20.4 µM (inactive) | 27.4 µM (inactive) | 21 µM (inactive) | 40.5 µM (inactive) | 30.5 µM (inactive) | 33.7 µM (inactive) | 33 µM (inactive) | 37.4 µM (inactive) | 44.6 µM (inactive) | 21.7 µM (inactive) | 17.5 µM (inactive) | 27 µM (inactive) | 34.3 µM (inactive)
15 | CC(O)CCCCC(O)CCC[C@H](O)[C@H]1CCC([C@H]2CCC([C@@H](O)CCCCCCCCCCCCC3=C[C@H](C)OC3=O)O2)O1 (some centres undefined) | 10.2 µM (inactive) | 13.2 µM (inactive) | 9.79 µM (inactive) | 11.4 µM (inactive) | 12.3 µM (inactive) | 5.48 µM (inactive) | 5.25 µM (inactive) | 10.4 µM (inactive) | 9.18 µM (inactive) | 8.65 µM (inactive) | 10.7 µM (inactive) |  | 11.6 µM (inactive) | 13.5 µM (inactive) | 12.2 µM (inactive) | 10.3 µM (inactive) | 9.48 µM (inactive) | 10.9 µM (inactive) |  | 8.22 µM (inactive)
